Where two headings read alike, the source gives them in different places. Starred links: 1 amine or outer side, 2 acyl side, 3 side chain; linkers in the order of their positions; H or OH if unused. Non-standard residues stand in square brackets, D forms with d. Residues, ends and D or L forms follow the SMILES beside them. Groups on a side chain read outwards from the residue. *: point of attachment. C20 diacid = O=C(O)CCCCCCCCCCCCCCCCCCC(=O)*; C18 diacid = O=C(O)CCCCCCCCCCCCCCCCC(=O)*; γGlu = O=C(O)[C@H](CCC(=O)[*:2])N[*:1]; Palmitoyl = CCCCCCCCCCCCCCCC(=O)*; NMeI = CC[C@H](C)[C@H](NC)C(=O)O; AEEA = NCCOCCOCC(=O)O
Target: T1, human CRHR2b (Homo sapiens, UniProt Q13324)
T1 construct: expressed in transfected cells; host or cells: Chinese Hamster Ovary (CHO) cells, transient transfection
T1 sequence (Q13324 1-438 isoform Q13324-2): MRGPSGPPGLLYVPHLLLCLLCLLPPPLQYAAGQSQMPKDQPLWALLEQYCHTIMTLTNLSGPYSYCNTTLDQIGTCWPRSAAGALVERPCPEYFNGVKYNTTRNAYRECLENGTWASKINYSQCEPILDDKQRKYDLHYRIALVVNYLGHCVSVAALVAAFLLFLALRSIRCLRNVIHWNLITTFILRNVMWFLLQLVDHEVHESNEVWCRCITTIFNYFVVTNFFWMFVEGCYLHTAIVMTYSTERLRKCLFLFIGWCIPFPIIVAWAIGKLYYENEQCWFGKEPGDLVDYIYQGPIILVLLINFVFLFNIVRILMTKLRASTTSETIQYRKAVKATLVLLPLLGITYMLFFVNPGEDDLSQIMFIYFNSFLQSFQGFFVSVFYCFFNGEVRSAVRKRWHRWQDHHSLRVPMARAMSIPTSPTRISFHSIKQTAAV
Assay: human CRHR2b cell-based cAMP assay
Procedure: CRHR agonistic activity is measured in a cell-based cAMP assay. Serial dilutions of the test peptides are made in assay buffer containing Hank's Balanced Salt Solution (HBSS, without phenol red) supplemented with 20 mM HEPES and 0.05% lactalbumin enzymatic hydrolysate (LAH) (“assay buffer”). […] A one to three dilution of the test peptides is used in both assays. Receptor over-expressing Chinese Hamster Ovary (CHO) cell line is used for the human CRHR2b assay. […] AF011406.1). Forty-eight hours after the transfection, the cells are centrifuged to remove the culture media and resuspended in fetal bovine serum containing 5% DMSO. They are cryofrozen and stored in vials in liquid nitrogen (20×10^6 cells/ml/vial). On the day of the assay, cells are thawed and resuspended in cold 30 ml culture media supplemented with 20 mM HEPES. The cells are then centrifuged to remove the media and washed once with HBSS supplemented with 20 mM HEPES. Finally, following the last centrifugation, the cells are resuspended in assay buffer. Thirty-thousand cells are used in the human CRHR2b assay for each treatment. The cells are dispensed into Costar 96-well black polystyrene half area EIA/RIA plates (Corning Incorporated, Corning, N.Y.) followed by the addition of the diluted peptides, each at a volume of 20 μL. The agonist induced cAMP levels are detected using a HTRF cAMP Dynamic 2 kit (CisBio, Bedford, Mass.). After incubation at 37° C. for 30 min, the assay is stopped by cell lysis via the addition of 20 μL of d2-labeled cAMP and followed by 20 μL of cryptate-labeled anti-cAMP antibody, as described by the manufacturer. Cellular cAMP (as a result of agonist stimulation) competes with the d2-labeled cAMP for binding to the antibody. HTRF detection is performed on an Envision plate reader (Perkin Elmer Life and Analytical Sciences, Waltham, Mass.) by measuring ratiometric emission at 620 and 665 nm after excitation at 320 nm. The data are converted to picomoles of cAMP using a standard curve obtained from the same assay performed with varying concentrations of unlabeled cAMP. […] The data are analyzed using a Curve Fitting Tool to calculate ED50. Numeric values shown below in Table 1 represent the mean of multiple runs (number of runs shown in parentheses) following the mean value±SEM.

[1] = cAMP assay, Table 26, compounds of Example 9, read-out: hCRHR2b Average EC50

Row | EC50 [1] | SMILES | EC50
1 | – | CC[C@H](C)[C@H](N)C(=O)N[C@H](C(=O)N[C@@H](CC(C)C)C(=O)N[C@@H](CO)C(=O)N[C@@H](CC(C)C)C(=O)N[C@@H](CC(=O)O)C(=O)N[C@H](C(=O)N1CCC[C@H]1C(=O)N[C@H](C(=O)NCC(=O)N[C@@H](CC(C)C)C(=O)N[C@@H](CC(C)C)C(=O)N[C@@H](CCC(N)=O)C(=O)N[C@H](C(=O)N[C@@H](CC(C)C)C(=O)N[C@@H](CC(C)C)C(=O)N[C@@H](CCCCNC(=O)COCCOCCNC(=O)COCCOCCNC(=O)CC[C@H](NC(=O)CC[C@H](NC(=O)CCCCCCCCCCCCCCCCC(=O)O)C(=O)O)C(=O)O)C(=O)N[C@@H](CCC(N)=O)C(=O)N[C@@H](CCC(=O)O)C(=O)N[C@@H](CCCCN)C(=O)N[C@@H](CCC(N)=O)C(=O)N[C@@H](CCC(=O)O)C(=O)N[C@@H](CCCCN)C(=O)N[C@@H](CCC(=O)O)C(=O)N[C@@H](CCCCN)C(=O)N[C@@H](CCC(N)=O)C(=O)N[C@@H](CCC(N)=O)C(=O)N[C@@H](C)C(=O)N[C@H](C(=O)N[C@H](C(=O)N[C@@H](CC(N)=O)C(=O)N[C@@H](C)C(=O)N[C@@H](CCC(N)=O)C(=O)N[C@H](C(=O)N[C@@H](CC(C)C)C(=O)N[C@@H](C)C(=O)N[C@@H](Cc1c[nH]cn1)C(=O)N[C@H](C(N)=O)C(C)C)[C@@H](C)CC)[C@@H](C)O)[C@@H](C)O)[C@@H](C)CC)[C@@H](C)CC)C(C)C)C(C)C [Compound 43] (H-IVLSLDVPIGLLQILLK([AEEA-AEEA-γGlu-γGlu-C18 diacid])QEKQEKEKQQATTNAQILAHV-NH2) | 12.6 nM
2 | 8.68 nM | CCCCCCCCCCCCCCCC(=O)N[C@@H](CCC(=O)NCCCC[C@H](NC(=O)[C@H](CCCCN)NC(=O)[C@H](CCC(=O)O)NC(=O)[C@H](CCCCN)NC(=O)[C@H](CCC(=O)O)NC(=O)[C@H](CCC(N)=O)NC(=O)[C@H](CCCCN)NC(=O)[C@H](CCC(=O)O)NC(=O)[C@H](CCC(N)=O)NC(=O)[C@H](CCC(=O)O)NC(=O)[C@H](CC(C)C)NC(=O)[C@H](CC(C)C)NC(=O)[C@@H](NC(=O)[C@H](CCC(N)=O)NC(=O)[C@H](CC(C)C)NC(=O)[C@H](CC(C)C)NC(=O)CNC(=O)[C@@H](NC(=O)[C@@H]1CCCN1C(=O)[C@@H](NC(=O)[C@H](CC(=O)O)NC(=O)[C@H](CC(C)C)NC(=O)[C@H](CO)NC(=O)[C@H](CC(C)C)NC(=O)[C@@H](NC(=O)[C@@H](N)[C@@H](C)CC)C(C)C)C(C)C)[C@@H](C)CC)[C@@H](C)CC)C(=O)N[C@@H](CCC(N)=O)C(=O)N[C@@H](C)C(=O)N[C@H](C(=O)N[C@H](C(=O)N[C@@H](CC(N)=O)C(=O)N[C@@H](C)C(=O)N[C@@H](CCCNC(=N)N)C(=O)N[C@H](C(=O)N[C@@H](CC(C)C)C(=O)N[C@@H](C)C(=O)N[C@@H](CCCNC(=N)N)C(=O)N[C@H](C(N)=O)C(C)C)[C@@H](C)CC)[C@@H](C)O)[C@@H](C)O)C(=O)O [Compound 33] (H-IVLSLDVPIGLLQILLEQEKQEKEKK([γGlu-Palmitoyl])QATTNARILARV-NH2) | –
3 | 3.79 nM | CC[C@H](C)[C@H](NC)C(=O)N[C@H](C(=O)N[C@@H](CC(C)C)C(=O)N[C@@H](CO)C(=O)N[C@@H](CC(C)C)C(=O)N[C@@H](CC(=O)O)C(=O)N[C@H](C(=O)N1CCC[C@H]1C(=O)N[C@H](C(=O)NCC(=O)N[C@@H](CC(C)C)C(=O)N[C@@H](CC(C)C)C(=O)N[C@@H](CCC(N)=O)C(=O)N[C@H](C(=O)N[C@@H](CC(C)C)C(=O)N[C@@H](CC(C)C)C(=O)N[C@@H](CCC(=O)O)C(=O)N[C@@H](CCC(N)=O)C(=O)N[C@@H](CCC(=O)O)C(=O)N[C@@H](CCCCN)C(=O)N[C@@H](CCC(N)=O)C(=O)N[C@@H](CCC(=O)O)C(=O)N[C@@H](CCCCN)C(=O)N[C@@H](CCC(=O)O)C(=O)N[C@@H](CCCCN)C(=O)N[C@@H](CCC(N)=O)C(=O)N[C@@H](CCC(N)=O)C(=O)N[C@@H](C)C(=O)N[C@@H](CCCCNC(=O)CC[C@H](NC(=O)CC[C@H](NC(=O)CCCCCCCCCCCCCCCCCCC(=O)O)C(=O)O)C(=O)O)C(=O)N[C@@H](CCC(=O)O)C(=O)N[C@@H](CC(N)=O)C(=O)N[C@@H](C)C(=O)N[C@@H](CCC(=O)O)C(=O)N[C@H](C(=O)N[C@@H](CC(C)C)C(=O)N[C@@H](C)C(=O)N[C@@H](CCC(N)=O)C(=O)N[C@H](C(N)=O)C(C)C)[C@@H](C)CC)[C@@H](C)CC)[C@@H](C)CC)C(C)C)C(C)C [Compound 58] (H-[NMeI]VLSLDVPIGLLQILLEQEKQEKEKQQAK([γGlu-γGlu-C20 diacid])ENAEILAQV-NH2) | –
4 | – | CCCCCCCCCCCCCCCC(=O)N[C@@H](CCC(=O)NCCCC[C@H](NC(=O)[C@H](CC(C)C)NC(=O)[C@H](CC(C)C)NC(=O)[C@@H](NC(=O)[C@H](CCC(N)=O)NC(=O)[C@H](CC(C)C)NC(=O)[C@H](CC(C)C)NC(=O)CNC(=O)[C@@H](NC(=O)[C@@H]1CCCN1C(=O)[C@@H](NC(=O)[C@H](CC(=O)O)NC(=O)[C@H](CC(C)C)NC(=O)[C@H](CO)NC(=O)[C@H](CC(C)C)NC(=O)[C@@H](NC(=O)[C@@H](N)[C@@H](C)CC)C(C)C)C(C)C)[C@@H](C)CC)[C@@H](C)CC)C(=O)N[C@@H](CCC(N)=O)C(=O)N[C@@H](CCC(=O)O)C(=O)N[C@@H](CCCCN)C(=O)N[C@@H](CCC(N)=O)C(=O)N[C@@H](CCC(=O)O)C(=O)N[C@@H](CCCCN)C(=O)N[C@@H](CCC(=O)O)C(=O)N[C@@H](CCCCN)C(=O)N[C@@H](CCC(N)=O)C(=O)N[C@@H](CCC(N)=O)C(=O)N[C@@H](C)C(=O)N[C@H](C(=O)N[C@H](C(=O)N[C@@H](CC(N)=O)C(=O)N[C@@H](C)C(=O)N[C@@H](CCCNC(=N)N)C(=O)N[C@H](C(=O)N[C@@H](CC(C)C)C(=O)N[C@@H](C)C(=O)N[C@@H](CCCNC(=N)N)C(=O)N[C@H](C(N)=O)C(C)C)[C@@H](C)CC)[C@@H](C)O)[C@@H](C)O)C(=O)O [Compound 23] (H-IVLSLDVPIGLLQILLK([γGlu-Palmitoyl])QEKQEKEKQQATTNARILARV-NH2) | 17.9 nM
5 | 55.9 nM | CC[C@H](C)[C@H](N)C(=O)N[C@H](C(=O)N[C@@H](CC(C)C)C(=O)N[C@@H](CO)C(=O)N[C@@H](CC(C)C)C(=O)N[C@@H](CC(=O)O)C(=O)N[C@H](C(=O)N1CCC[C@H]1C(=O)N[C@H](C(=O)NCC(=O)N[C@@H](CC(C)C)C(=O)N[C@@H](CC(C)C)C(=O)N[C@@H](CCC(N)=O)C(=O)N[C@@H](CCCCNC(=O)COCCOCCNC(=O)COCCOCCNC(=O)CC[C@H](NC(=O)CC[C@H](NC(=O)CCCCCCCCCCCCCCCCC(=O)O)C(=O)O)C(=O)O)C(=O)N[C@@H](CC(C)C)C(=O)N[C@@H](CC(C)C)C(=O)N[C@@H](CCC(=O)O)C(=O)N[C@@H](CCC(N)=O)C(=O)N[C@@H](CCC(=O)O)C(=O)N[C@@H](CCCCN)C(=O)N[C@@H](CCC(N)=O)C(=O)N[C@@H](CCC(=O)O)C(=O)N[C@@H](CCCCN)C(=O)N[C@@H](CCC(=O)O)C(=O)N[C@@H](CCCCN)C(=O)N[C@@H](CCC(N)=O)C(=O)N[C@@H](CCC(N)=O)C(=O)N[C@@H](C)C(=O)N[C@H](C(=O)N[C@H](C(=O)N[C@@H](CC(N)=O)C(=O)N[C@@H](C)C(=O)N[C@@H](CCC(N)=O)C(=O)N[C@H](C(=O)N[C@@H](CC(C)C)C(=O)N[C@@H](C)C(=O)N[C@@H](Cc1c[nH]cn1)C(=O)N[C@H](C(N)=O)C(C)C)[C@@H](C)CC)[C@@H](C)O)[C@@H](C)O)[C@@H](C)CC)C(C)C)C(C)C [Compound 40] (H-IVLSLDVPIGLLQK([AEEA-AEEA-γGlu-γGlu-C18 diacid])LLEQEKQEKEKQQATTNAQILAHV-NH2) | –

Reference: US10894817B2, “Fatty acid modified urocortin-2 analogs for the treatment of diabetes and chronic kidney disease” (priority 2016, dated 2021)
